# In ChEMBL document CHEMBL3272351, “[1-(L-2-hydroxy-3-mercaptopropanoic acid)] analogues of arginine-vasopressin, [8-D-arginine]vasopressin, and [4-valine,8-D-arginine]vasopressin” (J Med Chem, 1977):
# Positions of bridges follow the written chain, without caps; N, C: chain ends. Non-standard residues stand in square brackets, D forms with d. Residues, ends and D or L forms follow the SMILES beside them. Mpa = O=C(O)CCS
# How the values were obtained:
# [1] = system: Rattus norvegicus; test: Antidiuretic activity in iv dosed rat; format: functional, Urine
# [2] = Retardation factor of the compound in butan-1-ol-water (1:1 v/v) by TLC analysis; format: physicochemical; settings: buffer
# [3] = Retardation factor of the compound in ethyl acetate-pyridine-acetic acid-water (5:5:1:3 v/v) by TLC analysis; format: physicochemical; settings: buffer
# [4] = Oxytocic activity in rat uterus in absence of Mg2+; format: functional
# [5] = organism: Rattus norvegicus; test: Ratio of antidiuretic activity in rat to vasopressor activity in rat; design: species or system Urine
# [6] = Retardation factor of the compound in butan-1-ol-acetic acid-water (4:1:5 v/v) by TLC analysis; format: physicochemical; settings: buffer
# [7] = organism: Rattus norvegicus; test: Vasopressor activity in rat; format: organism-based; settings: in vivo
# [8] = Oxytocic activity in rat uterus in presence of Mg2+; format: functional
# [9] = system: Rattus norvegicus; test: Antidiuretic activity in sc dosed Brattleboro rat assessed as spontaneous urine output measured every 1 hr for 24 hrs; format: functional
# [10] = organism: Rattus norvegicus; test: Ratio of antidiuretic activity in Brattleboro rat to vasopressor activity in rat; design: species or system Urine
SMILES,Rf [2],Rf [3],Rf [6],Activity [7] [U/mg],Activity [1] [U/mg],Activity [4] [U/mg],Ratio [5],Activity [8] [U/mg],Activity [9] [U/mg],Ratio [10]
NC(=O)CC[C@@H]1NC(=O)[C@H](Cc2ccccc2)NC(=O)[C@H](Cc2ccc(O)cc2)NC(=O)[C@@H](O)CSSC[C@@H](C(=O)N2CCC[C@H]2C(=O)N[C@H](CCCN=C(N)N)C(=O)NCC(N)=O)NC(=O)[C@H](CC(N)=O)NC1=O,0.22,0.68,0.45,0.86,886,4.3,1030,2.6,,
CC(C)[C@@H]1NC(=O)[C@H](Cc2ccccc2)NC(=O)[C@H](Cc2ccc(O)cc2)NC(=O)[C@@H](O)CSSC[C@@H](C(=O)N2CCC[C@H]2C(=O)N[C@H](CCCN=C(N)N)C(=O)NCC(N)=O)NC(=O)[C@H](CC(N)=O)NC1=O,0.48,0.85,0.68,< 0.02,892,1.1,>45000,2.8,,
N=C(N)NCCC[C@H](NC(=O)[C@@H]1CCCN1C(=O)[C@@H]1CSSCCC(=O)N[C@@H](Cc2ccc(O)cc2)C(=O)N[C@@H](Cc2ccccc2)C(=O)N[C@@H](CCC(N)=O)C(=O)N[C@@H](CC(N)=O)C(=O)N1)C(=O)NCC(N)=O [DESMOPRESSIN],,,,,,54,,167,,
NC(=O)CC[C@@H]1NC(=O)[C@H](Cc2ccccc2)NC(=O)[C@H](Cc2ccc(O)cc2)NC(=O)[C@@H](N)CSSC[C@@H](C(=O)N2CCC[C@H]2C(=O)N[C@@H](CCCN=C(N)N)C(=O)NCC(N)=O)NC(=O)[C@H](CC(N)=O)NC1=O [VASOPRESSIN],,,,382,,16,,57,330,0.9

# Continued, in another order:
Rf [2],Rf [3],Rf [6],Activity [7] [U/mg],SMILES,Activity [1] [U/mg],Activity [4] [U/mg],Ratio [5],Activity [8] [U/mg],Activity [9] [U/mg],Ratio [10]
0.22,0.68,0.45,549,NC(=O)CC[C@@H]1NC(=O)[C@H](Cc2ccccc2)NC(=O)[C@H](Cc2ccc(O)cc2)NC(=O)[C@@H](O)CSSC[C@@H](C(=O)N2CCC[C@H]2C(=O)N[C@@H](CCCN=C(N)N)C(=O)NCC(N)=O)NC(=O)[C@H](CC(N)=O)NC1=O,467,31,0.9,96,,
,,,0.037,CC(C)[C@@H]1NC(=O)[C@H](Cc2ccccc2)NC(=O)[C@H](Cc2ccc(O)cc2)NC(=O)[C@@H](N)CSSC[C@@H](C(=O)N2CCC[C@H]2C(=O)N[C@H](CCCN=C(N)N)C(=O)NCC(N)=O)NC(=O)[C@H](CC(N)=O)NC1=O,653,0.6,17650,0.9,,
,,,< 0.01,CC(C)[C@@H]1NC(=O)[C@H](Cc2ccccc2)NC(=O)[C@H](Cc2ccc(O)cc2)NC(=O)CCSSC[C@@H](C(=O)N2CCC[C@H]2C(=O)N[C@H](CCCNC(=N)N)C(=O)NCC(N)=O)NC(=O)[C@H](CC(N)=O)NC1=O ([Mpa]YFVNCP[dR]G-NH2; disulfide 1-6),,8,,2,1230,>123000
